Results reported in the NIST ThermoML archive (doi:10.1021/je0601457).

Assay: xn = mol fraction of the nth substance listed

Cc1nccnc1C [2,3-dimethylpyrazine] + O=C=O
Fluid (supercritical or subcritical phases), Linear displacement technique
Conditions	mass density [kg/m3]
294.15 K, 7140 kPa, x1 = 0.027	905
294.15 K, 9590 kPa, x1 = 0.027	934
294.15 K, 14100 kPa, x1 = 0.027	983
294.55 K, 7140 kPa, x1 = 0.049	1099
294.55 K, 7140 kPa, x1 = 0.184	947
294.55 K, 8520 kPa, x1 = 0.184	949
294.55 K, 10590 kPa, x1 = 0.049	1123
294.55 K, 12450 kPa, x1 = 0.184	951
294.55 K, 13830 kPa, x1 = 0.049	1142
294.75 K, 2240 kPa, x1 = 0.736	861
294.75 K, 3830 kPa, x1 = 0.736	864
294.75 K, 5690 kPa, x1 = 0.736	864
294.75 K, 6720 kPa, x1 = 0.033	836
294.75 K, 8450 kPa, x1 = 0.033	858
294.75 K, 13830 kPa, x1 = 0.033	911
294.85 K, 6660 kPa, x1 = 0.108	899
294.85 K, 7070 kPa, x1 = 0.565	958
294.85 K, 10070 kPa, x1 = 0.108	901
294.85 K, 10620 kPa, x1 = 0.565	961
294.85 K, 13620 kPa, x1 = 0.108	904
294.85 K, 15240 kPa, x1 = 0.565	964
294.85 K, 18660 kPa, x1 = 0.108	908
295.05 K, 7070 kPa, x1 = 0.157	995
295.05 K, 10310 kPa, x1 = 0.157	1004
295.05 K, 13480 kPa, x1 = 0.157	1014
295.25 K, 6140 kPa, x1 = 0.086	767
295.25 K, 6380 kPa, x1 = 0.057	871
295.25 K, 7410 kPa, x1 = 0.057	885
295.25 K, 7690 kPa, x1 = 0.01	785
295.25 K, 8380 kPa, x1 = 0.086	778
295.25 K, 10170 kPa, x1 = 0.057	911
295.25 K, 11100 kPa, x1 = 0.01	833
295.25 K, 12100 kPa, x1 = 0.086	799
295.25 K, 15790 kPa, x1 = 0.01	873
295.25 K, 16070 kPa, x1 = 0.086	817
296.25 K, 4410 kPa, x1 = 0.433	989
296.25 K, 7660 kPa, x1 = 0.433	997
296.25 K, 10720 kPa, x1 = 0.433	1002
301.75 K, 6620 kPa, x1 = 0.565	938
301.75 K, 9830 kPa, x1 = 0.565	941
301.75 K, 15790 kPa, x1 = 0.565	946
302.65 K, 7520 kPa, x1 = 0.049	902
302.65 K, 10030 kPa, x1 = 0.049	934
302.65 K, 13030 kPa, x1 = 0.049	962
302.65 K, 16660 kPa, x1 = 0.049	1000
303.25 K, 7410 kPa, x1 = 0.291	859
303.25 K, 9860 kPa, x1 = 0.291	860
303.25 K, 15450 kPa, x1 = 0.291	860
306.25 K, 7410 kPa, x1 = 0.027	750
306.25 K, 9900 kPa, x1 = 0.027	812
306.25 K, 13380 kPa, x1 = 0.027	864
308.95 K, 7070 kPa, x1 = 0.157	952
308.95 K, 9450 kPa, x1 = 0.157	964
308.95 K, 13480 kPa, x1 = 0.157	981
308.95 K, 17690 kPa, x1 = 0.157	996
310.85 K, 6970 kPa, x1 = 0.433	967
310.85 K, 12480 kPa, x1 = 0.433	975
310.85 K, 21340 kPa, x1 = 0.433	994
311.45 K, 7380 kPa, x1 = 0.184	912
311.45 K, 9210 kPa, x1 = 0.184	918
311.45 K, 12380 kPa, x1 = 0.184	925
311.45 K, 16720 kPa, x1 = 0.184	932
312.65 K, 10170 kPa, x1 = 0.033	763
312.65 K, 12660 kPa, x1 = 0.033	804
312.65 K, 15970 kPa, x1 = 0.033	851
312.75 K, 8520 kPa, x1 = 0.057	874
312.75 K, 9970 kPa, x1 = 0.057	905
312.75 K, 10450 kPa, x1 = 0.057	914
313.95 K, 10520 kPa, x1 = 0.108	879
313.95 K, 13660 kPa, x1 = 0.108	888
313.95 K, 17210 kPa, x1 = 0.108	896
314.25 K, 9830 kPa, x1 = 0.01	500
314.25 K, 11830 kPa, x1 = 0.01	769
314.25 K, 18590 kPa, x1 = 0.01	799
315.85 K, 9380 kPa, x1 = 0.086	702
315.85 K, 12310 kPa, x1 = 0.086	728
315.85 K, 16520 kPa, x1 = 0.086	752
315.85 K, 24210 kPa, x1 = 0.086	786
316.05 K, 7480 kPa, x1 = 0.291	857
316.05 K, 8660 kPa, x1 = 0.291	858
316.05 K, 11340 kPa, x1 = 0.291	858
316.25 K, 6170 kPa, x1 = 0.565	923
316.25 K, 10000 kPa, x1 = 0.565	926
316.25 K, 16380 kPa, x1 = 0.565	935
317.35 K, 5590 kPa, x1 = 0.736	859
317.35 K, 11590 kPa, x1 = 0.736	860
317.35 K, 16450 kPa, x1 = 0.736	862
318.75 K, 7690 kPa, x1 = 0.433	955
318.75 K, 16070 kPa, x1 = 0.433	969
318.75 K, 22930 kPa, x1 = 0.433	977
319.35 K, 10520 kPa, x1 = 0.049	834
319.35 K, 15340 kPa, x1 = 0.049	906
319.35 K, 18660 kPa, x1 = 0.049	946
321.05 K, 10210 kPa, x1 = 0.157	927
321.05 K, 12000 kPa, x1 = 0.157	937
321.05 K, 16280 kPa, x1 = 0.157	958
321.05 K, 18660 kPa, x1 = 0.157	970
322.35 K, 11790 kPa, x1 = 0.027	717
322.35 K, 13000 kPa, x1 = 0.027	688
322.35 K, 13410 kPa, x1 = 0.027	761
322.35 K, 15620 kPa, x1 = 0.027	757
322.35 K, 16310 kPa, x1 = 0.027	812
323.35 K, 10660 kPa, x1 = 0.057	815
323.35 K, 11970 kPa, x1 = 0.057	849
323.35 K, 16030 kPa, x1 = 0.057	904
324.95 K, 7830 kPa, x1 = 0.433	944
324.95 K, 13900 kPa, x1 = 0.433	955
324.95 K, 20660 kPa, x1 = 0.433	968
325.25 K, 6140 kPa, x1 = 0.736	859
325.25 K, 10720 kPa, x1 = 0.736	860
325.25 K, 18170 kPa, x1 = 0.736	861
325.65 K, 10520 kPa, x1 = 0.184	894
325.65 K, 12660 kPa, x1 = 0.184	903
325.65 K, 18030 kPa, x1 = 0.184	916
328.55 K, 10170 kPa, x1 = 0.291	857
328.55 K, 10660 kPa, x1 = 0.01	438
328.55 K, 10970 kPa, x1 = 0.01	552
328.55 K, 11970 kPa, x1 = 0.01	635
328.55 K, 12140 kPa, x1 = 0.291	858
328.55 K, 13000 kPa, x1 = 0.01	688

Liquid, linear displacement
Conditions	mass density [kg/m3]
294.15 K, x1 = 0.027	868
294.55 K, x1 = 0.049	1077
294.55 K, x1 = 0.184	945
294.75 K, x1 = 0.033	802
294.75 K, x1 = 0.736	861
294.85 K, x1 = 0.108	896
294.85 K, x1 = 0.565	947
295.05 K, x1 = 0.157	982
295.25 K, x1 = 0.01	735
295.25 K, x1 = 0.057	832
295.25 K, x1 = 0.086	730
296.25 K, x1 = 0.433	985
301.75 K, x1 = 0.565	920
302.65 K, x1 = 0.049	876
303.25 K, x1 = 0.291	858
306.25 K, x1 = 0.027	738
308.95 K, x1 = 0.157	948
310.85 K, x1 = 0.433	962
311.45 K, x1 = 0.184	912
312.65 K, x1 = 0.033	694
312.75 K, x1 = 0.057	860
313.95 K, x1 = 0.108	864
314.25 K, x1 = 0.01	584
315.85 K, x1 = 0.086	687
316.05 K, x1 = 0.291	858
316.25 K, x1 = 0.565	920
317.35 K, x1 = 0.736	859
318.75 K, x1 = 0.433	951
319.35 K, x1 = 0.049	790
321.05 K, x1 = 0.157	912
322.35 K, x1 = 0.027	612
323.35 K, x1 = 0.057	784
324.95 K, x1 = 0.433	940
325.25 K, x1 = 0.736	857
325.65 K, x1 = 0.184	885
